Results reported in US20070213301A1 (ACHILLION PHARMACEUTICALS, INC., priority 2006, published 2007).
Read-outs that look alike come from different tables or passages of the source.

System: HCV replicon
Assay: HCV replicon replication assay (NPTII ELISA)
Type: cell-based, Hepatitis C virus (Huh-7 cells)
Settings: inhibition of HCV replicon replication in Huh-7 HCV replicon-containing cells, three days incubation, NPT level by ELISA
Outline: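 Huh-7 cells carrying a Bartenschlager NPTII (neo) HCV replicon, treated 3 days at 37 °C with compound, generally 6 concentrations from 10 to 0.03 micromolar, in equal DMSO across wells. NPTII level, proportional to replication, read by capture ELISA on methanol:acetone-fixed cells; interferon alpha positive control; toxicity scored visually or by MTS.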

[1] = Hepatitis C virus, Huh-7, 72 h, read-out: EC50

## CCCCCCCCOc1ccc(N(C(=O)CO)c2nc(-c3cccnc3)cs2)cc1C(F)(F)F [Compound 159, 2-hydroxy-N-(4-(octyloxy)-3-(trifluoromethyl)phenyl)-N-(4-(pyridin-3-yl)thiazol-2-yl)acetamide]
[1]
  EC50: < 1000 nM

## CCCCCOc1ccc(N(C(C)=O)c2nc(C(=O)Nc3cccnc3)cs2)cc1C(F)(F)F [Compound 7, 2-(N-(4-(pentyloxy)-3-(trifluoromethyl)phenyl)acetamido)-N-(pyridin-3-yl)thiazole-4-carboxamide]
[1]
  EC50: 1000 to 10000 nM

## CCCCCN(C)c1ccc(N(C(N)=O)c2nc(-c3ccccn3)cs2)cc1C(F)(F)F [Compound 106, 1-(4-(methyl(pentyl)amino)-3-(trifluoromethyl)phenyl)-1-(4-(pyridin-2-yl)thiazol-2-yl)urea]
[1]
  EC50: < 1000 nM

## CCCCCOc1ccc(N(C(=O)CC(=O)OC)c2nc(-c3ccc(F)cc3)cs2)cc1F [Compound 42, methyl 3-((3-fluoro-4-(pentyloxy)phenyl)(4-(4-fluorophenyl)thiazol-2-yl)amino)-3-oxopropanoate]
[1]
  EC50: < 1000 nM

## CCCCCCCCOc1ccc(N(C(=O)COC(C)=O)c2nc(-c3ccc(F)c(F)c3)cs2)cc1 [Compound 57, 2-((4-(3,4-difluorophenyl)thiazol-2-yl)(4-(octyloxy)phenyl)amino)-2-oxoethyl acetate]
[1]
  EC50: < 1000 nM

## CCCCCOc1ccc(N(C(N)=O)c2nc(-c3cccnc3)c(F)s2)cc1C(F)(F)F [Compound 156, 1-(5-fluoro-4-(pyridin-3-yl)thiazol-2-yl)-1-(4-(pentyloxy)-3-(trifluoromethyl)phenyl)urea]
[1]
  EC50: < 1000 nM

## CCCCCCCCOc1ccc(N(C(=O)CC(=O)OC)c2nc(-c3ccc(F)cc3)cs2)cc1 [Compound 44, methyl 3-((4-(4-fluorophenyl)thiazol-2-yl)(4-(octyloxy)phenyl)amino)-3-oxopropanoate]
[1]
  EC50: < 1000 nM

## CCCCCOc1ccc(N(C(=O)C2CC2)c2nc(-c3ccc(CN(C)C)nc3)cs2)cc1C(F)(F)F [Compound 17, N-(4-(6-((dimethylamino)methyl)pyridin-3-yl)thiazol-2-yl)-N-(4-(pentyloxy)-3-(trifluoromethyl)phenyl)cyclopropane-carboxamide]
[1]
  EC50: 1000 to 10000 nM

## CCCCCCCCOc1ccc(N(C(=O)C(C)OC(C)=O)c2nc(-c3ccc(C)nc3)cs2)cc1 (stereo not drawn) [Compound 63, 1-((4-(6-methylpyridin-3-yl)thiazol-2-yl)(4-(octyloxy)phenyl)amino)-1-oxopropan-2-yl acetate]
[1]
  EC50: < 1000 nM

## CCCCCCCCOc1ccc(N(C(=O)CCC(=O)O)c2nc(-c3cccnc3)c(F)s2)cc1C(F)(F)F [Compound 163, 4-((5-fluoro-4-(pyridin-3-yl)thiazol-2-yl)(4-(octyloxy)-3-(trifluoromethyl)phenyl)amino)-4-oxobutanoic acid]
[1]
  EC50: < 1000 nM

## CCCCCCCCOc1ccc(N(C(=O)c2cc(C)on2)c2nc(-c3nc4ccccc4s3)cs2)cc1 [Compound 90]
Hepatitis C virus, Huh-7, 72 h
  EC50: 1000 to 10000 nM

## CCCCCOc1ccc(N(C(=O)C(C)OC(C)=O)c2nc(-c3cccnc3)cs2)cc1C(F)(F)F (stereo not drawn) [Compound 64, 1-oxo-1-((4-(pentyloxy)-3-(trifluoromethyl)phenyl)(4-(pyridin-3-yl)thiazol-2-yl)amino)propan-2-yl acetate]
[1]
  EC50: < 1000 nM

## CC(C)COc1ccc(N(C(N)=O)c2nc(-c3cccnc3)cs2)cc1C(F)(F)F [Compound 152, 1-(4-isobutoxy-3-(trifluoromethyl)phenyl)-1-(4-(pyridin-3-yl)thiazol-2-yl)urea]
  EC50: 1000 to 10000 nM

## CCCCCOc1ccc(N(C(=O)C(C)C)c2nc(-c3cccnc3)cs2)cc1F [Compound 25, N-(3-fluoro-4-(pentyloxy)phenyl)-N-(4-(pyridin-3-yl)thiazol-2-yl)isobutyramide]
[1]
  EC50: < 1000 nM

## CCCCCOc1ccc2c(c1)[nH]c(=O)n2-c1nc(-c2cccnc2)cs1 [Compound 127, 5-(pentyloxy)-1-(4-(pyridin-3-yl)thiazol-2-yl)-1H-benzo[d]imidazol-2(3H)-one]
[1]
  EC50: 1000 to 10000 nM

## CCCCCCCCOc1ccc(N(C(=O)NCC(=O)O)c2nc(-c3cccnc3)cs2)cc1C(F)(F)F [Compound 165, 2-(3-(4-(octyloxy)-3-(trifluoromethyl)phenyl)-3-(4-(pyridin-3-yl)thiazol-2-yl)ureido)acetic acid]
[1]
  EC50: < 1000 nM

## CCCCCOc1ccc(N(C(=O)OC)c2nc(-c3ccncc3)cs2)cc1C(F)(F)F [Compound 36, methyl 4-(pentyloxy)-3-(trifluoromethyl)phenyl(4-(pyridin-4-yl)thiazol-2-yl)carbamate]
[1]
  EC50: < 1000 nM

## CCCCCOc1ccc(N(C(=O)C(=O)OC)c2nc(-c3ccc(Cl)s3)cs2)cc1C(F)(F)F [Compound 99, methyl 2-((4-(5-chlorothiophen-2-yl)thiazol-2-yl)(4-(pentyloxy)-3-(trifluoromethyl)phenyl)amino)-2-oxoacetate]
[1]
  EC50: < 1000 nM

## CCCCCCCCOc1ccc(N(C(=O)CO)c2nc(-c3cccnc3)c(F)s2)cc1C(F)(F)F [Compound 169, N-(5-fluoro-4-(pyridin-3-yl)thiazol-2-yl)-2-hydroxy-N-(4-(octyloxy)-3-(trifluoromethyl)phenyl)acetamide]
[1]
  EC50: < 1000 nM

## CCCCCCOc1ccc(N(C(N)=O)c2nc(-c3cccnc3)cs2)cc1 [Compound 145, 1-(4-(hexyloxy)phenyl)-1-(4-(pyridin-3-yl)thiazol-2-yl)urea]
[1]
  EC50: < 1000 nM

## CCCCCCCCOc1ccc(N(C(=O)CN(C)C)c2nc(-c3cccnc3)c(F)s2)cc1C(F)(F)F [Compound 167, 2-(dimethylamino)-N-(5-fluoro-4-(pyridin-3-yl)thiazol-2-yl)-N-(4-(octyloxy)-3-(trifluoromethyl)phenyl)acetamide]
[1]
  EC50: < 1000 nM

## CN(C)CC(=O)N(c1ccc(OCCCCc2cccs2)c(C(F)(F)F)c1)c1nc(-c2cccnc2)c(F)s1 [Compound 173, 2-(dimethylamino)-N-(5-fluoro-4-(pyridin-3-yl)thiazol-2-yl)-N-(4-(4-(thiophen-2-yl)butoxy)-3-(trifluoromethyl)phenyl)acetamide]
[1]
  EC50: < 1000 nM

## CCCCCCCCOc1ccc(N(C(=O)OC)c2nc(-c3ccc(F)cc3)cs2)cc1 [Compound 48, methyl 4-(4-fluorophenyl)thiazol-2-yl(4-(octyloxy)phenyl)carbamate]
[1]
  EC50: 1000 to 10000 nM

## CCCCCCCCOc1ccc(N(C(=O)COC(C)=O)c2nc(-c3cccnc3)cs2)cc1 [Compound 67, 2-((4-(octyloxy)phenyl)(4-(pyridin-3-yl)thiazol-2-yl)amino)-2-oxoethyl acetate]
[1]
  EC50: < 1000 nM

## CCCCCCOc1ccc(N(C(N)=O)c2nc(-c3ccc(F)cc3)cs2)cc1 [Compound 122, 1-(4-(4-fluorophenyl)thiazol-2-yl)-1-(4-(hexyloxy)phenyl)urea]
[1]
  EC50: < 1000 nM

## CC(C)COc1ccc(N(C(N)=O)c2nc(-c3ccc(O)c(C(N)=O)c3)cs2)cc1C(F)(F)F [Compound 148, 2-hydroxy-5-(2-(1-(4-isobutoxy-3-(trifluoromethyl)phenyl)ureido)thiazol-4-yl)benzamide]
[1]
  EC50: < 1000 nM

## O=C(O)CCC(=O)N(c1ccc(OCCCCc2cccs2)c(C(F)(F)F)c1)c1nc(-c2cccnc2)c(F)s1 [Compound 174, 4-((5-fluoro-4-(pyridin-3-yl)thiazol-2-yl)(4-(4-(thiophen-2-yl)butoxy)-3-(trifluoromethyl)phenyl)amino)-4-oxobutanoic acid]
[1]
  EC50: < 1000 nM

## CCCCCCCCc1ccc(N(C(N)=O)c2nc(-c3cccnc3)c(F)s2)cc1C(F)(F)F [Compound 178, 1-(5-fluoro-4-(pyridin-3-yl)thiazol-2-yl)-1-(4-octyl-3-(trifluoromethyl)phenyl)urea]
[1]
  EC50: < 1000 nM

## COc1ccc(N(C(N)=O)c2nc(-c3cccnc3)cs2)cc1C(F)(F)F [Compound 84, 1-(4-methoxy-3-(trifluoromethyl)phenyl)-1-(4-(pyridin-3-yl)thiazol-2-yl)urea]
[1]
  EC50: < 1000 nM

## CCCCCOc1ccc(N(C)c2nc(C(=O)Nc3ccc(Cl)cc3)cs2)cc1C(F)(F)F [Compound 4, N-(4-chlorophenyl)-2-(methyl(4-(pentyloxy)-3-(trifluoromethyl)phenyl)amino)thiazole-4-carboxamide]
[1]
  EC50: 1000 to 10000 nM

## CCCCCOc1ccc(N(C)c2nc(C(=O)O)cs2)cc1C(F)(F)F [Compound 3, 2-(methyl(4-(pentyloxy)-3-(trifluoromethyl)phenyl)amino)thiazole-4-carboxylic acid]
[1]
  EC50: > 10000 nM

## CCCCCCCOc1ccc(N(C(N)=O)c2nc(-c3ccc(C(=O)N(C)C)nc3)cs2)cc1 [Compound 79, 5-(2-(1-(4-(heptyloxy)phenyl)ureido)thiazol-4-yl)-N,N-dimethylpicolinamide]
[1]
  EC50: > 10000 nM

## CCCCCCCCOc1ccc(N(C(N)=O)c2nc(-c3cccnc3)cs2)cc1C(F)(F)F [Compound 130, 1-(4-(octyloxy)-3-(trifluoromethyl)phenyl)-1-(4-(pyridin-3-yl)thiazol-2-yl)urea]
[1]
  EC50: < 1000 nM

## CCCCCN(C)c1ccc(N(C(N)=O)c2nc(-c3ccc(C)nc3)cs2)cc1C(F)(F)F [Compound 139, 1-(4-(methyl(pentyl)amino)-3-(trifluoromethyl)phenyl)-1-(4-(6-methylpyridin-3-yl)thiazol-2-yl)urea]
[1]
  EC50: < 1000 nM

## CCCCCCc1ccc(N(C(N)=O)c2nc(-c3cccnc3)c(F)s2)cc1C(F)(F)F [Compound 155, 1-(5-fluoro-4-(pyridin-3-yl)thiazol-2-yl)-1-(4-hexyl-3-(trifluoromethyl)phenyl)urea]
[1]
  EC50: < 1000 nM

## CCCCCOc1ccc(N(C)c2nc(-c3cccnc3)cs2)cc1C(F)(F)F [Compound 2, N-methyl-N-(4-(pentyloxy)-3-(trifluoromethyl)phenyl)-4-(pyridin-3-yl)thiazol-2-amine]
[1]
  EC50: < 1000 nM
